Data published in patent EP0618917B1, “1'-AMINO-2- (BENZOTHIAZOLYL)METHYL]SPIRO ISOQUINOLINE-4(1H),3'-PYRROLIDINE]-1,2',3,5'(2H)-TETRONES AND ANALOGS THEREOF USEFUL AS ALDOSE REDUCTASE INHIBITORS” (AMERICAN HOME PRODUCTS CORPORATION, priority 1991, dated 1993).

Test system: aldose reductase
Test: Galactitol (dulcitol) accumulation in galactosemic rats, in vivo
Conditions: percentage decrease of dulcitol accumulation vs untreated galactose-fed rats, four days; for % Lowering Galactitol Accumulation In Vivo %(D): diaphragm; for % Lowering Galactitol Accumulation In Vivo %(L): lens
Source text: The aldose reductase inhibiting property of the compounds of this invention and the utilization of the compounds in preventing, diminishing and alleviating diabetic complications are demonstrable in experiments using galactosemic rats, see Dvornik et al., Science, 182, 1146 (1973). Such experiments are exemplified hereinbelow after the listing of the following general comments pertaining to these experiments: • (a) Four or more groups of six male rats, 50-70 g, Sprague-Dawley strain, were used. The first group, the control group, was fed a mixture of laboratory chow (rodent Laboratory Chow, Purina) and glucose at 20% (w/w %) concentration. An untreated galactosemic group was fed a similar diet in which galactose was substituted for glucose. The third group was fed a diet prepared by mixing a given amount of the test compound with the galactose containing diet The concentration of galactose in the diet of the treated groups was the same as that for the untreated galactosemic group. • (b) After four days, the animals were killed by euthanization. Both the lens and sciatic nerve were removed, weighed and stored frozen for polyol determination. • (c) The polyol determination was performed by a modification of the procedure of M. Kraml and L. Cosyns, Clin. Biochem., 2, 373 (1969). Only two minor reagent changes were made: (a) the rinsing mixture was an aqueous 5% (w/v) trichloroacetic acid solution and (b) the stock solution was prepared by dissolving 25 mg of dulcitol in 100 mL of an aqueous trichloroacetic acid solution. [N.B.: For each experiment the average value found in the tissue from rats fed the glucose diet was subtracted from the individual values found in the corresponding tissue in galactose-fed rats to obtain the amount of polyol accumulated.] The aldose reductase inhibiting effects of the compounds of formula (I) were also tested by employing an in vitro testing procedure similar to that described by S. Hayman and J.H. Kinoshita, J. Biol. Chem., 240, 877 (1965). In the present case the procedure of Hayman and Kinoshita was modified in that the final chromatography step was omitted in the preparation of the enzyme from bovine lens.
The figures under L, N, and D represent the percentage decrease of dulcitol accumulation in the tissues of the lens, sciatic nerve, and diaphragm, respectively for treated rats as compared to untreated rats.

Row | SMILES | % Lowering Galactitol Accumulation In Vivo %(D) (dose 50 mg/kg/day in diet) | % Lowering Galactitol Accumulation In Vivo %(L) (dose 50 mg/kg/day in diet) | % Lowering Galactitol Accumulation In Vivo %(D) (Table 2, 50 mg/kg/day in diet) | % Lowering Galactitol Accumulation In Vivo %(L) (Table 2, 50 mg/kg/day in diet)
1 | NN1C(=O)CC2(C1=O)C(=O)N(Cc1nc3cc(C(F)(F)F)ccc3s1)C(=O)c1ccccc12 (stereo not drawn) [R^1=H, R^4=H, R^5=H, 1'-Amino-2-[[5-(trifluoromethyl)-2-benzothiazolyl]methyl]spiro[isoquinoline-4(1H),3'-pyrrolidine]-1,2',3,5'(2H)-tetrone] | 96% | 61% |  | 
2 | O=C1c2ccccc2C2(CC(=O)N(N=C3CCOCC3)C2=O)C(=O)N1Cc1nc2cc(C(F)(F)F)ccc2s1 (stereo not drawn) [1'-[(Tetrahydro-4H-pyran-4-ylidene)amino]-2-[[5-(trifluoromethyl)-2-benzothiazolyl]methyl]spiro[isoquinoline-4(1H),3'-pyrrolidine]-1,2',3,5'(2H)-tetrone] |  |  | 96% | 41%
3 | CC(C)=NN1C(=O)CC2(C(=O)N(Cc3nc4cc(C(F)(F)F)ccc4s3)C(=O)c3ccccc32)C1=O (stereo not drawn) [1'-[(1-Methylethylidene)amino]-2-[[5-(trifluoromethyl)-2-benzothiazolyl]methyl]spiro[isoquinoline]-1,2',3,5'(2H)-tetrone] |  |  | 97% | 37%
4 | CC(=O)NN1C(=O)CC2(C(=O)N(Cc3nc4cc(C(F)(F)F)ccc4s3)C(=O)c3ccccc32)C1=O (stereo not drawn) [R^1=H, R^4=H, R^5=COCH3, N-[2-[[5-(trifluoromethyl)-2-benzothiazolyl]methyl]-2,3-dihydro-1,2',3,5'-tetraoxospiro[isoquinoline-4(1H),3'-pyrrolidine]-1'-yl] acetamide] | 97% | 40% |  | 
5 | NN1C(=O)CC2(C1=O)C(=O)N(Cc1nc3cc(C(F)(F)F)ccc3s1)C(=O)c1ccc(F)cc12 (stereo not drawn) [R^1=F, R^4=H, R^5=H] | 97% | 31% |  | 
6 | O=C1c2ccccc2C2(CC(=O)N(N=C3CCCC3)C2=O)C(=O)N1Cc1nc2cc(C(F)(F)F)ccc2s1 (stereo not drawn) [1'-(Cyclopentylideneamino)-2-[[5-(trifluoromethyl)-2-benzothiazolyl]methyl]spiro[isoquinoline-4(1H),3'pyrrolidine]-1,2',3,5'(2H)-tetrone] |  |  | 95% | 28%
